Test [1] deals with hTel23 (DNA, G4) TAGGGTTAGGGTTAGGGTTAGGG
The experiment in a line: CD melting. The following applies: 80 mM KCl, 10 mM KH2PO4 (90 mM K+); pH 7.3; 5 equiv. complex (25 µM), 5 µM DNA, 0.5 °C/min.

Test [2] has the same test system. The experiment in a line: CD titration, Hill fit. The settings on record: 80 mM KCl, 10 mM KH2PO4 (90 mM K+), pH 7.3, 5 °C, up to 0.9% DMSO, apparent.

Turning to `CC(=O)NCCN1[C]N2C=CC=CC2=C1.CC(=O)NCCN1[C]N2C=CC=CC2=C1.[Au+]`, the ΔTM in test [1] was −13 °C. In addition, in test [2] (290 nm (hybrid form)), the Kd came out at 9.7 µmol/L.
`CCN1[C]N(CC)C(c2ccc(OC)cc2)=C1c1ccc(OC)cc1.CCN1[C]N(CC)C(c2ccc(OC)cc2)=C1c1ccc(OC)cc1.[Au+]`: the ΔTM in test [1] was −2 °C.
Turning to `[Au+].[C]1C2=C(CCCC2)N2CCCCN12.[C]1C2=C(CCCC2)N2CCCCN12`, the ΔTM in test [1] was −4 °C. For the same compound, in test [2] (272 nm (parallel form), 290 nm (hybrid) gives 17), the Kd came out at 5.1 µmol/L.
In the case of `[Au+].[C]1N(Cc2ccccn2)C=CN1c1c2ccccc2nc2ccccc12.[C]1N(Cc2ccccn2)C=CN1c1c2ccccc2nc2ccccc12`, in test [1], the ΔTM entry is “+1 °C”.
